The numbers were not newly measured in patent US20240307504A1, “INTRANASAL FORMULATIONS AND DELIVERY OF SOMATOSTATIN MIMETICS AND USES THEREOF” (NBO PHARMA LLC, priority 2021, published 2024), which cites them from elsewhere.

Read-outs that look alike come from different tables or passages of the source.

Consider “L-alanyl-glycyl-L-cysteinyl-L-lysyl-L-asparagyl-L-phenylalanyl-L-phenylalanyl-L-tryptophyl-L-lysyl-L-threonyl-L-phenylalanyl-L-threonyl-L-seryl-L-cysteine (3->14)-disulfide [somatostatin]”, for which, where the note is “in vivo”, the biological half-life is on record as 2-3 minutes. Regarding `C[C@@H](O)[C@@H]1NC(=O)[C@H](CCCCN)NC(=O)[C@@H](Cc2c[nH]c3ccccc23)NC(=O)[C@H](Cc2ccccc2)NC(=O)[C@@H](NC(=O)[C@H](N)Cc2ccccc2)CSSC[C@@H](C(=O)N[C@H](CO)[C@@H](C)O)NC1=O` [Octreotide], the biological half-life is, setting by setting: (after intravenous administration) 72 minutes; (after subcutaneous administration) 102 minutes.
